Source: the NIST ThermoML archive (doi:10.1021/je7001946)

Experiment: mn = molality of the nth substance listed, in mol/kg
Conditions: 101.3 kPa, Liquid; for speed of sound: Pulse-echo method

[Br-].[Br-].[Zn+2] [zinc bromide] + CC#N
Conditions | mass density, 288.15 K [kg/m3] | mass density, 293.15 K [kg/m3] | mass density, 298.15 K [kg/m3] | mass density, 303.15 K [kg/m3] | mass density, 308.15 K [kg/m3] | mass density, 313.15 K [kg/m3] | mass density, 323.15 K [kg/m3] | speed of sound, 298.15 K [m/s]
m1 = 0.02964 | – | – | – | – | – | – | – | 1277.1
m1 = 0.03209 | 792.171 | 786.781 | 781.365 | 775.922 | 770.453 | 764.95 | 753.836 | –
m1 = 0.0404 | 793.435 | 788.04 | 782.622 | 777.179 | 771.701 | 766.197 | 755.075 | –
m1 = 0.04717 | 794.467 | 789.072 | 783.65 | 778.202 | 772.724 | 767.215 | 756.09 | 1276.4
m1 = 0.05609 | 795.839 | 790.436 | 785.044 | 779.559 | 774.08 | 768.567 | 757.437 | –
m1 = 0.06324 | 796.938 | 791.534 | 786.108 | 780.651 | 775.17 | 769.655 | 758.516 | 1275.7
m1 = 0.07124 | 798.167 | 792.766 | 787.332 | 781.876 | 776.393 | 770.874 | 759.73 | –
m1 = 0.07952 | 799.446 | 794.033 | 788.597 | 783.143 | 777.651 | 772.126 | 760.98 | 1275.1
m1 = 0.09524 | 801.876 | 796.466 | 791.02 | 785.546 | 780.047 | 774.52 | 763.359 | –
m1 = 0.1099 | 804.162 | 798.743 | 793.295 | 787.86 | 782.357 | 776.822 | 765.649 | 1273.6
m1 = 0.1252 | 806.567 | 801.138 | 795.677 | 790.202 | 784.687 | 779.149 | 767.969 | –
m1 = 0.1317 | 807.593 | 802.157 | 796.698 | 791.221 | 785.702 | 780.162 | 768.971 | 1272.5
m1 = 0.1402 | 808.922 | 803.487 | 798.026 | 792.539 | 787.024 | 781.476 | 770.273 | –
m1 = 0.1554 | – | – | – | – | – | – | – | 1271.2

[Br-].[Br-].[Mn+2] [manganese(II) bromide] + CC#N
Conditions | mass density, 288.15 K [kg/m3] | mass density, 293.15 K [kg/m3] | mass density, 298.15 K [kg/m3] | mass density, 303.15 K [kg/m3] | mass density, 308.15 K [kg/m3] | mass density, 313.15 K [kg/m3] | mass density, 323.15 K [kg/m3] | speed of sound, 298.15 K [m/s]
m1 = 0.0415 | 793.652 | 788.26 | 782.85 | 777.408 | 771.942 | 766.441 | 755.33 | –
m1 = 0.0513 | 795.156 | 789.764 | 784.353 | 778.907 | 773.433 | 767.926 | 756.805 | –
m1 = 0.06115 | 796.676 | 791.28 | 785.862 | 780.415 | 774.941 | 769.432 | 758.311 | 1277.2
m1 = 0.07131 | 798.243 | 792.85 | 787.428 | 781.978 | 776.494 | 770.984 | 759.855 | –
m1 = 0.08138 | 799.819 | 794.414 | 788.989 | 783.537 | 778.054 | 772.539 | 761.403 | 1276.9
m1 = 0.09054 | 801.238 | 795.84 | 790.408 | 784.953 | 779.461 | 773.94 | 762.804 | –
m1 = 0.1006 | 802.824 | 797.413 | 791.982 | 786.518 | 781.03 | 775.513 | 764.368 | 1276.7
m1 = 0.1214 | 806.091 | 800.671 | 795.23 | 789.765 | 784.269 | 778.744 | 767.585 | –
m1 = 0.1406 | 809.125 | 803.696 | 798.249 | 792.776 | 787.272 | 781.741 | 770.567 | 1276.1
m1 = 0.1603 | 812.287 | 806.853 | 801.398 | 795.916 | 790.407 | 784.868 | 773.687 | –
m1 = 0.1712 | 814.024 | 808.58 | 803.121 | 797.634 | 792.128 | 786.584 | 775.396 | 1275.7
m1 = 0.1804 | 815.501 | 810.054 | 804.59 | 799.11 | 793.589 | 788.041 | 776.847 | –
m1 = 0.1995 | 818.585 | 813.117 | 807.642 | 802.149 | 796.622 | 791.065 | 779.856 | 1275.3

[Br][Co][Br] [cobalt(II) bromide] + CC#N
Conditions | mass density, 288.15 K [kg/m3] | mass density, 293.15 K [kg/m3] | mass density, 298.15 K [kg/m3] | mass density, 303.15 K [kg/m3] | mass density, 308.15 K [kg/m3] | mass density, 313.15 K [kg/m3] | mass density, 323.15 K [kg/m3] | speed of sound, 298.15 K [m/s]
m1 = 0.06384 | 797.529 | 792.118 | 786.677 | 781.218 | 775.72 | 770.192 | 759.026 | –
m1 = 0.08092 | 800.3 | 794.88 | 789.432 | 783.966 | 778.458 | 772.92 | 761.738 | –
m1 = 0.09698 | 802.926 | 797.495 | 792.044 | 786.563 | 781.049 | 775.5 | 764.302 | 1277
m1 = 0.1125 | 805.465 | 800.033 | 794.565 | 789.08 | 783.57 | 778.02 | 766.801 | –
m1 = 0.1286 | 808.142 | 802.7 | 797.232 | 791.742 | 786.222 | 780.656 | 769.421 | 1276
m1 = 0.1428 | 810.505 | 805.061 | 799.583 | 794.089 | 788.55 | 782.985 | 771.734 | –
m1 = 0.1587 | 813.161 | 807.703 | 802.224 | 796.713 | 791.168 | 785.595 | 774.335 | 1275.3
m1 = 0.19 | 818.466 | 812.988 | 807.489 | 801.964 | 796.411 | 790.822 | 779.533 | 1274.6
m1 = 0.2204 | 823.615 | 818.13 | 812.623 | 807.083 | 801.513 | 795.917 | 784.593 | 1273.9
m1 = 0.2527 | 829.214 | 823.715 | 818.194 | 812.642 | 807.057 | 801.45 | 790.088 | –
m1 = 0.2636 | 831.14 | 825.637 | 820.113 | 814.557 | 808.967 | 803.34 | 791.988 | 1273.2
m1 = 0.2777 | 833.591 | 828.085 | 822.557 | 816.995 | 811.404 | 805.778 | 794.405 | –
m1 = 0.3089 | 839.134 | 833.612 | 828.072 | 822.494 | 816.889 | 811.253 | 799.854 | 1272.1
